Calls of active or inactive are those of the source. No cut-off for these calls is given here.
Assays:
Oryctolagus cuniculus = species: Oryctolagus cuniculus; assay: Antagonist activity at alpha adrenergic receptor in rabbit aortic strips assessed as decrease in of phenylephrine-induced contraction at 10^-4 M; assay type: functional
[1] = Antagonist activity at alpha adrenergic receptor in rabbit aortic strips assessed as decrease in of phenylephrine-induced contraction at 3 X 10^-4 M; assay type: functional, Oryctolagus cuniculus; design: scale not given: the % may be the effect or the level left
[2] = Antagonist activity at alpha adrenergic receptor in rabbit aortic strips assessed as inhibition of phenylephrine-induced contraction; assay type: functional, Oryctolagus cuniculus
Canis familiaris [3] = assay: Toxicity in dog at 0.5 to 4 mg/kg, iv; assay type: organism-based, Canis lupus familiaris; design: dose 0.5-4 mg/kg, route intravenous; settings: in vivo
Canis familiaris [4] = assay: Cardiovascular effect in anesthetized normotensive iv dosed dog assessed as decrease in mean arterial pressure; assay type: functional, organism-based; settings: Canis lupus familiaris; Artery
Canis familiaris [5] = assay: Cardiovascular effect in anesthetized normotensive iv dosed dog assessed as decrease in heart rate; assay type: functional, Canis lupus familiaris
Canis familiaris [6] = assay: Toxicity in iv dosed dog assessed as inhibition of respiration; assay type: organism-based, Canis lupus familiaris; settings: in vivo
Canis familiaris [7] = assay: Cardiovascular effect in anesthetized normotensive dog assessed as decrease in mean arterial pressure at 2 mg/kg, iv upto 22 mins; assay type: functional, Canis lupus familiaris, Artery
Canis familiaris [8] = assay: Cardiovascular effect in anesthetized normotensive dog assessed as reduction in mean arterial pressure at 2 mg/kg, iv dosed twice with second dose being administered 2.5 hrs interval after the first dose; assay type: functional, Canis lupus familiaris, Artery
Rattus norvegicus = species: Rattus norvegicus; assay: Blockade of neuromuscular transmission activity in albino Sprague-Dawley rat hemidiaphragm assessed as inhibition of electrically-stimulated phrenic nerve contraction at 1 to 30 X 10^-6 M; assay type: functional, tissue-based; settings: Diaphragm
[9] = Blockade of neuromuscular transmission activity in albino Sprague-Dawley rat hemidiaphragm assessed as inhibition of electrically-stimulated phrenic nerve contraction; assay type: functional, tissue-based, Diaphragm
Canis familiaris [10] = assay: Cardiovascular effect in anesthetized normotensive dog assessed as rise in heart rate at 0.1 mg/kg, iv; assay type: functional, Canis lupus familiaris
Canis familiaris [11] = assay: Toxicity in dog at > 0.4 mg/kg, iv; assay type: organism-based, Canis lupus familiaris; design: dose 0.4 mg/kg, route intravenous; settings: in vivo
Canis familiaris [12] = assay: Cardiovascular effect in anesthetized normotensive dog assessed as decrease in mean arterial pressure at 0.1 to 0.4 mg/kg, iv; assay type: functional, organism-based; settings: Canis lupus familiaris, Artery
Canis familiaris [13] = assay: Toxicity in dog assessed as inhibition of respiration at > 0.4 mg/kg, iv; assay type: organism-based, Canis lupus familiaris; design: dose 0.4 mg/kg, route intravenous; settings: in vivo
[14] = Protection of albino Sprague-Dawley rat hemidiaphragm from alpha-bungarotoxin blockade assessed as recovery of nerve-stimulated muscle contraction at 3 X 10^-5 M; assay type: functional, Muscle tissue
Canis familiaris [15] = assay: Cardiovascular effect in anesthetized normotensive dog assessed as fall in heart rate at 0.1 to 0.4 mg/kg, iv; assay type: functional, Canis lupus familiaris; settings: dose mg/kg 0.1-0.4
[16] = Blockade of neuromuscular transmission activity in albino Sprague-Dawley rat hemidiaphragm assessed as inhibition of electrically-stimulated phrenic nerve contraction at 10^-5 M relative to control; assay type: functional, Diaphragm; design: scale not given: the % may be the effect or the level left
[17] = Blockade of neuromuscular transmission activity in albino Sprague-Dawley rat hemidiaphragm assessed as inhibition of electrically-stimulated phrenic nerve contraction at 10^-5 M relative to control in presence of Eserine; assay type: functional, Diaphragm; design: scale not given: the % may be the effect or the level left

| Structure (SMILES) | Activity (Oryctolagus cuniculus) | Activity [1] [%] | pKb [2] | Activity (Canis familiaris [3]) | Activity (Canis familiaris [4]) | Activity (Canis familiaris [5]) [bpm] | Activity (Canis familiaris [6]) | Activity (Canis familiaris [7]) [mmHg] | Activity (Canis familiaris [8]) [mmHg] | Activity (Rattus norvegicus) | IC50 [9] [nM] | Activity (Canis familiaris [10]) [bpm] | Activity (Canis familiaris [11]) | Activity (Canis familiaris [12]) | Activity (Canis familiaris [13]) | Kb ([2]; Oryctolagus cuniculus, read-out: pA2 (converted)) [nM] | Activity [14] [%] | Activity (Canis familiaris [15]) [bpm] | Activity [16] [%] | Activity [17] [%] |
| --- | --- | --- | --- | --- | --- | --- | --- | --- | --- | --- | --- | --- | --- | --- | --- | --- | --- | --- | --- | --- |
| COc1cc2c3cc1Oc1c(O)c(OC)cc4c1[C@@H](Cc1ccc(O)c(c1)Oc1ccc(cc1)C[C@@H]3N(C)CC2)N(C)CC4 [OBAMEGINE] | Active | 30 | 5.3 | Non-toxic | Dose-dependent effect | 20 | Non-toxic | 61 | 11 | inactive |  |  |  |  |  |  |  |  |  |  |
| COc1cc2c3cc1Oc1cc(ccc1O)C[C@@H]1c4c(cc(OC)c(O)c4Oc4ccc(cc4)C[C@@H]3N(C)CC2)CC[N+]1(C)C |  |  |  |  |  |  |  |  |  |  | 1420 |  |  |  |  |  |  |  |  |  |
| COc1ccc(C[C@H]2c3cc(OC)c(OC)c(OC)c3CC[N+]2(C)C)cc1Oc1ccc(C[C@H]2c3cc(OC)c4c(c3CCN2C)OCO4)cc1.[Cl-] [THALISTYLINE] |  |  |  |  |  |  |  |  |  |  | 4980 | 20 | Toxic | Active | Toxic | 468 | 65.8 | 20 | 24.7 | 63.8 |

Reference: ChEMBL document CHEMBL1151382, “A pharmacological study of two bisbenzylisoquinoline alkaloids, thalistyline and obamegine” (J Nat Prod, 1982)
